From PMC10377586 (Biomolecules, 2023) come the findings set out here.

A value given as a limit tells only on which side of the number the result lay.

One data set concerns the target T1, rat A2A (rA2A) ARs (Rattus norvegicus, UniProt P30543).
T1 construct: rat brain striatal membrane preparations for A2A AR assays; tissue Pel Freez; host or cells: rat brain striatum membranes
In words: Radioligand binding [3H]MSX-2, rat brain striatal membranes. The conditions noted are these: read-out: rA2A [3H]MSX-2 Ki ± SEM. On the procedure:
(§1) The final compounds were tested in radioligand binding assays to evaluate their affinity for all four ARs subtypes (see Table 2). Rat brain cortical membrane preparations were used as a source of rat A1 (rA1) ARs, and rat brain striatal membrane preparations served as a source of rat A2A (rA2A) ARs. For A2B- and A3AR assays, membrane preparations of Chinese hamster ovary (CHO) cells recombinantly expressing either human A2B (hA2B) or human A3 (hA3) ARs were employed.
(§2) Adenosine receptor radioligand binding assays were performed as previously described using rat brain cortical membrane preparations for A1 and rat brain striatal membrane preparations for A2A AR assays. Frozen rat brains (unstripped) were obtained from Pel Freez, Rogers, AR, USA. For assays at human AR subtypes, cell membranes of CHO cells recombinantly expressing the respective receptor were used. The following compounds were employed as radioligands: A1: [^3H]2-chloro-N^6-cyclopentyladenosine ([^3H]CCPA); A2A: [^3H]3-(3-hydroxypropyl)-7-methyl-8-(m-methoxystyryl)-1-propargylxanthine ([^3H]MSX-2); A2B: [^3H]8-(4-(4-(4-chlorophenyl)piperazine-1-sulfonyl)phenyl)-1-propylxanthine ([^3H]PSB-603); A3: [^3H]phenyl-8-ethyl-4-methyl-(8R)-4,5,7,8-tetrahydro-1H-imidazo[2,1-i]purine-5-one ([^3H]PSB-11). Initially, a single high concentration of compound was tested (1 µM). For potent compounds, full concentration–inhibition curves were determined using six to ten different concentrations of test compound spanning three orders of magnitude. At least three independent experiments were performed. Data were analyzed using GraphPad PRISM program version 4.0 or higher (Graph Pad, San Diego, CA, USA).

The target of a further data set is T2, human A2B (hA2B) ARs (Homo sapiens, UniProt P29275).
T2 construct: expressed in transfected cells; host or cells: CHO cells (membranes)
T2 sequence (P29275 1-332): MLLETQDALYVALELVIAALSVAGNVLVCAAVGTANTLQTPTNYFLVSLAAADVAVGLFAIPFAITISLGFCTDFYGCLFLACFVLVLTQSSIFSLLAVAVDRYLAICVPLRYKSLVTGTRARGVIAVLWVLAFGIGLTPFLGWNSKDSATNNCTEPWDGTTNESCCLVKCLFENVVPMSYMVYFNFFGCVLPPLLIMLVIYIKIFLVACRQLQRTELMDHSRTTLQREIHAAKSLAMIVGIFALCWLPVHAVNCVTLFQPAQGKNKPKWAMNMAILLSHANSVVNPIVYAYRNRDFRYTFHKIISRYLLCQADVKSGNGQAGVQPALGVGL
Put plainly: Radioligand binding [3H]PSB-603, CHO cell membranes. The following applies: for Ki: CHO cell membranes, read-out: hA2B [3H]PSB-603 Ki ± SEM; for inhibition at 1 µM: read-out: hA2B [3H]PSB-603 % inhibition ± SEM at 1 µM. The protocol:
as §1, §2

Another data set has as its target T3, human A3 (hA3) ARs (Homo sapiens, UniProt P0DMS8).
T3 construct: expressed in transfected cells; host or cells: CHO cells (membranes)
T3 sequence (P0DMS8 1-318): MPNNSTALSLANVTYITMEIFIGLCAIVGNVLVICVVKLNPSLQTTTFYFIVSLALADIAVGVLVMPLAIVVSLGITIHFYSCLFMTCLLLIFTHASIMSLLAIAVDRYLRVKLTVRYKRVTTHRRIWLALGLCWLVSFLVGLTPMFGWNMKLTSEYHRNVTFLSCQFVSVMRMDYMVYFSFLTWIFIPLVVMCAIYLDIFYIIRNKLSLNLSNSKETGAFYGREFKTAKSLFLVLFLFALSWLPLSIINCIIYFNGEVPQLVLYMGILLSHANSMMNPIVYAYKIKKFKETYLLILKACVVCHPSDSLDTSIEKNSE
Put plainly: Radioligand binding [3H]PSB-11, CHO cell membranes. The conditions noted are these: for Ki: CHO cell membranes, read-out: hA3 [3H]PSB-11 Ki ± SEM; for inhibition at 1 µM: read-out: hA3 [3H]PSB-11 % inhibition ± SEM at 1 µM. The protocol:
as §1, §2

The nature of another data set: DPPH antioxidant assay. In kind it is physicochemical. The following applies: compound at 50 µM. An excerpt: The 2,2-diphenyl-1-picrylhydrazyl (DPPH) assay was used to determine the antioxidant properties of selected compounds using ascorbic acid, trolox, and quercetin as references. […] From a structural point of view, 21 and 22 share a common pyrimido[2,1-f]purinedione core with propyl or butyl substituents at the N1- and N3-position. Compounds 11i and 11l, containing hexyl or phenoxyethyl as N7-substituents, were the only structures in the groups of bicyclic xanthine derivatives that lacked antioxidant activity in the DPPH assay.
Antioxidant properties of considered structures were evaluated in DPPH test. The assay utilizes a stable free radical 2,2-diphenyl-1-picrylhydrazyl (DPPH). DPPH has a deep violet color in solution and strong absorption band at 520 nm. The antioxidant activity of the tested compounds was defined by their ability to induce the formation of the reduced form of DPPH. Upon reduction, DPPH color turned pale yellow, which manifested by decreased sample absorption at 520 nm and was measured in conducted experiments using EnSpire microplate reader (PerkinElmer). Antioxidant activity of xanthine derivatives and reference compounds was tested in triplicate at 50 µM concentration and normalized to the activity of reference radical scavenger—quercetin.
Figure 2 Antioxidant properties of xanthine derivatives evaluated in the DPPH test. All compounds were tested at 50 µM concentration. Results were normalized to the antioxidant activity measured for quercetin. ASC, ascorbic acid; TLX, trolox; QCT, quercetin.
For orientation: The DPPH test is a chemical assay of radical scavenging.

For a further data set, the target named is T4, rat A1 (rA1) ARs (Rattus norvegicus, UniProt P25099).
T4 construct: using rat brain cortical membrane preparations for A1; tissue Pel Freez; host or cells: rat brain cortex membranes
T4 sequence (P25099 1-326): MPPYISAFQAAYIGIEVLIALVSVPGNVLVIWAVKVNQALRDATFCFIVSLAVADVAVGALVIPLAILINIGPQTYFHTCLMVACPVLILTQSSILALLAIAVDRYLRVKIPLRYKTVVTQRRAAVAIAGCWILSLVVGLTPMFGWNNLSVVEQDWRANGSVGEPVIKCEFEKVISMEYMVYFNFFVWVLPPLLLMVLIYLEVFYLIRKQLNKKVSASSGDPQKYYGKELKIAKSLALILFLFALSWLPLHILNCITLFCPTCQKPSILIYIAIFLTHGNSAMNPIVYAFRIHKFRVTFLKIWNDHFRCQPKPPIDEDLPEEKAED
Put plainly: Radioligand binding [3H]CCPA, rat brain cortical membranes. The conditions noted are these: read-out: rA1 [3H]CCPA % inhibition ± SEM at 10 µM.

T1 sequence (P30543 whole entry): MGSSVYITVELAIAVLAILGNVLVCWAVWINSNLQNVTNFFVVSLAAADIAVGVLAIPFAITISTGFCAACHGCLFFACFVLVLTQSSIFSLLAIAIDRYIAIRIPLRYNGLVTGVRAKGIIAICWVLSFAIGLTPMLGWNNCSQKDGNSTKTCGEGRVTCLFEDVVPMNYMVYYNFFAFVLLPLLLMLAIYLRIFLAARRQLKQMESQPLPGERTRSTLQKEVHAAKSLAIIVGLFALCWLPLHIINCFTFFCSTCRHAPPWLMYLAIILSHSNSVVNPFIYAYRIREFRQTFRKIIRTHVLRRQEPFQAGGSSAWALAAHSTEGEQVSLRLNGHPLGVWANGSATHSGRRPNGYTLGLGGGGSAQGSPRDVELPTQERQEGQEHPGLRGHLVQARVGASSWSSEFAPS

For orientation: Ki means a dissociation constant, usually derived from enzyme kinetics or from competition with a known ligand. The inhibition is the change of the read-out against control, counted positive when it falls. The term melting point denotes the temperature, or range, at which the solid turns liquid. Take `CC(C)n1c(NCCc2ccc(O)c(O)c2)nc2c1c(=O)n(C)c(=O)n2C` [Compound 11d, 8-((3,4-Dihydroxyphenethyl)amino)-7-isopropyl-1,3-dimethyl-3,7-dihydro-1H-purine-2,6-dione]: the melting point lay within 180 to 182 °C. Moreover, the inhibition constant Ki on rat A2A (rA2A) ARs was 1.15 ± 0.14 µM. Also, on human A2B (hA2B) ARs, the inhibitory constant (Ki) is over 1 µM and the inhibition at 1 µM turned out to be 13%. In addition, on human A3 (hA3) ARs, the Ki is over 1 µM and the inhibition at 1 µM is 12%. Also, the “Antioxidative Activity [% of Quercetin Response at 50 µM ± SD]” value in “DPPH antioxidant assay” is 87 ± 1 % of Quercetin Response.

The molecule `CCCCCCn1c(NCCc2ccc(O)c(O)c2)nc2c1c(=O)n(C)c(=O)n2C` [Compound 11i, 8-((3,4-Dihydroxyphenethyl)amino)-7-hexyl-1,3-dimethyl-3,7-dihydro-1H-purine-2,6-dione] displayed a melting point of 216 to 218 °C. In addition, on rat A2A (rA2A) ARs, the Ki is over 10 µM. For the same molecule, at human A2B (hA2B) ARs, the inhibition constant Ki was over 1 µM and the inhibition at 1 µM amounted to 31%. At human A3 (hA3) ARs, the inhibition constant (Ki) was over 1 µM and the inhibition at 1 µM is 3%. Moreover, the “Antioxidative Activity [% of Quercetin Response at 50 µM ± SD]” value in “DPPH antioxidant assay” is given as 26 ± 1 % of Quercetin Response. In addition, the inhibition at 10 µM on rat A1 (rA1) ARs was 43%.

Consider `Cn1c(=O)c2c(nc(NCCc3ccc(O)c(O)c3)n2CCc2ccccc2)n(C)c1=O` [Compound 11k, 8-((3,4-Dihydroxyphenethyl)amino)-1,3-dimethyl-7-phenethyl-3,7-dihydro-1H-purine-2,6-dione], for which the Ki was at least 10 µM on rat A2A (rA2A) ARs, over 1 µM at human A2B (hA2B) ARs and over 1 µM at human A3 (hA3) ARs. The figures for the inhibition at 1 µM at human A2B (hA2B) ARs and on human A3 (hA3) ARs were -9% and -1%, respectively. The “Antioxidative Activity [% of Quercetin Response at 50 µM ± SD]” value in “DPPH antioxidant assay” was 73 ± 3 % of Quercetin Response. For the same molecule, the inhibition at 10 µM on rat A1 (rA1) ARs amounted to 46%.

Consider `Cn1c(=O)c2c(nc(NCCc3ccc(O)c(O)c3)n2CCOc2ccccc2)n(C)c1=O` [Compound 11l, 8-((3,4-Dihydroxyphenethyl)amino)-1,3-dimethyl-7-(2-phenoxyethyl)-3,7-dihydro-1H-purine-2,6-dione], for which the melting point fell in the range of 218 to 220 °C. Also, at rat A2A (rA2A) ARs, the Ki was determined as 1.38 ± 0.12 µM. On human A2B (hA2B) ARs, the Ki is over 1 µM and the inhibition at 1 µM came out at 22%. Besides, at human A3 (hA3) ARs, the Ki was over 1 µM and the inhibition at 1 µM was -2%. For the same molecule, in “DPPH antioxidant assay”, the “Antioxidative Activity [% of Quercetin Response at 50 µM ± SD]” value was 26 ± 3 % of Quercetin Response.

Molecule `Cn1c(=O)c2c(nc3n2CCCN3CCc2ccc(O)c(O)c2)n(C)c1=O` [Compound 20a, 9-(3,4-Dihydroxyphenethyl)-1,3-dimethyl-6,7,8,9-tetrahydropyrimido[2,1-f]purine-2,4(1H,3H)-dione] returned a melting point of 213 to 215 °C. Further, at rat A2A (rA2A) ARs, the inhibition constant (Ki) amounted to 0.507 ± 0.109 µM. At human A2B (hA2B) ARs, the inhibition constant (Ki) is over 1 µM and the inhibition at 1 µM was determined as 13%. In addition, at human A3 (hA3) ARs, the inhibitory constant (Ki) is over 1 µM and the inhibition at 1 µM is -6%. Moreover, the “Antioxidative Activity [% of Quercetin Response at 50 µM ± SD]” value in “DPPH antioxidant assay” was 68 ± 2 % of Quercetin Response. At rat A1 (rA1) ARs, the inhibition at 10 µM worked out at 43%.

With `Cn1c(=O)c2c(nc3n2CCCCN3CCc2ccc(O)c(O)c2)n(C)c1=O` [Compound 20b, 10-(3,4-Dihydroxyphenethyl)-1,3-dimethyl-7,8,9,10-tetrahydro-1H-[1, 3]diazepino[2,1-f]purine-2,4(3H,6H)-dione], the melting point was 232 to 235 °C. The inhibition constant (Ki) on rat A2A (rA2A) ARs was 0.234 ± 0.055 µM. Besides, on human A2B (hA2B) ARs, the inhibition constant (Ki) is over 1 µM and the inhibition at 1 µM came to 6%. Further, on human A3 (hA3) ARs, the Ki is over 1 µM and the inhibition at 1 µM was -2%. Also, in the data set “DPPH antioxidant assay”, the “Antioxidative Activity [% of Quercetin Response at 50 µM ± SD]” value is on record as 79 ± 1 % of Quercetin Response.
